Laboratory results published in article PMC8861050, “Design, synthesis and evaluation of novel 2-oxoindoline-based acetohydrazides as antitumor agents” (Scientific Reports, 2022).

Experiments:
[1] = Cytotoxicity on normal mesenchymal stem cells; format: cell-based; conditions: human bone marrow-derived mesenchymal stem cells; mean ± SEM; read-out: Cytotoxicity (IC50) MSCs
Experimental: Overally, 5-fluorinated compounds (4i–p and 5d–f) were slightly more cytotoxic than non-fluorinated ones (4a–h, 5a–c). For compounds in series 4a–p, it was observed that, electron-releasing substituents (–OCH3, OH) were generally better than electron-withdrawing groups (–Cl) for cytotoxicity. Especially, compounds with 2-OH substituents produced the best cytotoxicity. The addition of either 4-OCH3 or 3-allyl groups further enhanced cytotoxicity of the related compounds (4g, 4h and 4o, 4p).

U937 cells = test: Annexin V-FITC/PI apoptosis assay; format: cell-based, human; conditions: U937, 50 µM, 24 h
Experimental: The Annexin V-FITC/PI dual staining assay was used to determine the percentage of apoptotic cells. U937 cells (5 × 10^5/mL per well) were plated in 6-well culture plates and allowed to grow for 24 h. In our first experiment, we examined the effects of 4f, 4h, 4n, 4o, 4p, and PAC-1 on apoptosis at 50 µM. In the second experiment, we examined the dose-dependent effect of 4o at 5, 10, and 30 µM and PAC-1 at 30 µM on apoptosis. The cells were treated with compounds for 24 h, and then harvested. The harvested cells were washed twice with ice-cold PBS and incubated in the dark at room temperature in […] of 1 × binding buffer containing 1 µL Annexin V-FITC and […] PI. After 15 min incubation, cells were analyzed for percentage undergoing apoptosis using a FACScalibur flow cytometer (BD Biosciences). The data were processed using Cell Quest Pro software (BD Biosciences).
Figure 5 Apoptosis (Annexin V/PI) analysis of cells after treatment with some compounds. U937 cells were treated with compounds (50 µM) for 24 h. The harvested cells were incubated with Annexin V-FITC and PI and analyzed by using flow cytometry. Ten thousand cells were acquired (n = 3). UN untreated, VH vehicle (DMSO. 0.1%). Representative dot plots (A). Live cells, left down in dot plot. Early apoptotic cells, right down. Necrotic cells, left up, Late apoptotic cells, right up. Bar graph of late apoptotic cells (B). p values were calculated using one-way ANOVA in GraphPad Software (San Diego, CA, USA). *p < 0.01 vs VH control. TEXT PRINTED IN THE PICTURE: (A) PAC-1: 10.40%; 29.30%; 12.70% | (A) 4f: 0.52%; 6.05%; 5.41% | (A) 4h: 0.89%; 13.20%; 7.67% | (A) 4n: 0.44%; 6.83%; 5.73% | (A) 4o: 0.67%; 17.30%; 8.17% | (A) 4p: 1.60%; 13.00%; 5.86% DOUBTS OF THE COPYIST ABOUT THIS PICTURE: The quadrant percentages are in small italic print over the dot plots, so 3, 5, 6, 8 and 9 cannot always be told apart. All values given are best readings. / PAC-1: 10.40%, 29.30% and 12.70% are best readings (29.30 could be 28.30) / 4f: 0.52%, 6.05% and 5.41% are best readings (6.05 could be 6.06 or 8.05) / 4h: 0.89%, 13.20% and 7.67% are best readings (0.89 could be 0.86 or 0.69) / 4n: 0.44%, 6.83% and 5.73% are best readings (6.83 could be 6.63 or 6.88) / 4o: 0.67%, 17.30% and 8.17% are best readings (8.17 could be 6.17) / 4p: 1.60%, 13.00% and 5.86% are best readings (5.86 could be 5.88 or 5.66) / The picture prints no measure for the percentages; only their quadrant position tells them apart. They are listed upper left, upper right, lower right. / The plots UN (0.70%, 2.31%, 3.03%) and VH (1.75%, 2.43%, 3.57%) are controls, not substances, and are left out of the lines.
Figure 6 Apoptosis (Annexin V/PI) analysis of cells after treatment with different concentrations of compound 4o. U937 cells were treated with compound 4o at 5, 10 and 30 µM or PAC-1 (30 µM) for 24 h. The harvested cells were incubated with Annexin V-FITC and PI and analyzed by using flow cytometry. Ten thousand cells were acquired (n = 3). UN untreated, VH vehicle (DMSO. 0.1%). Representative dot plots (A). Live cells, left down in dot plot. Early apoptotic cells, right down. Necrotic cells, left up, Late apoptotic cells, right up. Bar graph of late apoptotic cells (B). p values were calculated using one-way ANOVA in GraphPad Software (San Diego, CA, USA). *p < 0.01 vs VH control.

SW620 (colon cancer) = test: SRB cytotoxicity assay, SW620; format: cell-based; conditions: Homo sapiens, SW-620, 48 h incubation, mean ± SEM of 3 independent experiments
Description: (§1) Three human cancer cell lines: colon cancer (SW620), prostate cancer (PC3), and lung cancer (NCI-H23) were used for sceening the cytotoxicity of the compounds. The cancer cells were purchased from American Type Culture Collection (Manassas, VA, USA). Other reagents/media for cell culture were obtained from GIBCO (Grand Island, New York, USA). The testing cancer cells were culture in Dulbecco’s Modified Eagle Medium until confluence. Then, they were trypsinized and suspended at the level of 3 × 10^4 cells/mL of cell culture medium. On day 0, cancer cells were seeded at a volume of 180 µL/well of 96-well plates and incubated for 24 h at 37 °C in a 5% CO2 incubator. On day 1, 20 µL of various concentrations of testing compounds were added to each well of the 96-well plates. Chemicals were dissolved in dimethyl sulfoxide (DMSO, stock) and diluted in culture medium (1% DMSO) before adding to the culture. After 48 h incubation, the sulforhodamine B assay was used for cell density determination with slight modifications[22]–[26]. The Probits were used for the calculation of IC50 values. The reported IC50 were the averages of three independent screening (SD ≤ 10%)[27].
(§2) Two series of compounds synthesized (4a–p and 5a–f) were evaluated for their cytotoxicity against three human cancer cell lines, including SW620 (colon cancer), PC3 (prostate cancer), NCI-H23 (lung cancer), using SRB method as described previously[22] with slight modifications[23]–[26].

NCI-H23 (lung cancer) = test: SRB cytotoxicity assay, NCI-H23; format: cell-based; conditions: Homo sapiens, 48 h incubation, mean ± SEM of 3 independent experiments
Description: as §1, §2

[2] = test system: U937 human lymphoma cells; test: Cell cycle analysis (PI, flow cytometry); format: cell-based; conditions: 50 µM, 24 h
Experimental: U937 human lymphoma cells (5 × 10^5/mL per well) were plated in 6-well culture plates and allowed to grow for 24 h. In our first experiment, we examined the effects of 4f, 4h, 4n, 4o, 4p, and PAC-1 on cell cycles at 50 µM. In the second experiment, we examined the dose-dependent effect of 4o at 5, 10, and 30 µM and PAC-1 at 30 µM on cell cycles. The cells were treated with compounds for 24 h, and then harvested. The harvested cells were washed twice with ice-cold PBS, fixed in 75% ice-cold ethanol, and stained with propidium iodide (PI) in the presence of RNase at room temperature for 30 min. The stained cells were analyzed for DNA content using a FACScalibur flow cytometer (BD Biosciences, San Jose, CA, USA) and the data were processed using Cell Quest Pro software (BD Biosciences).
(§3) Figure 3 Cell cycle analysis after treatment with some compounds. U937 human lymphoma cells were treated with compounds (50 µM) for 24 h. The harvested cells were stained with propidium iodide (PI) in the presence of RNase and then were analyzed for DNA content by using flow cytometry. Ten thousand cells were acquired (n = 3). UN untreated, VH vehicle (DMSO. 0.1%). Representative histograms (A) and bar graphs (B) are shown. p values were calculated using one-way ANOVA in GraphPad Software (San Diego, CA, USA). *p < 0.01 vs VH control.
as §3, with “Figure 4” for “Figure 3”, “analysis under” for “analysis after”, “with different concentrations of compound 4o.” for “with some compounds.”, “with compound 4o at 5, 10 and 30 µM or PAC-1 (30” for “with compounds (50”

PC3 (prostate cancer) = test: SRB cytotoxicity assay, PC3; format: cell-based; conditions: Homo sapiens, 48 h incubation, mean ± SEM of 3 independent experiments
Description: as §1, §2

Row | Compound | melting point [°C] | IC50 [1] [µM] | Induction of apoptosis (Annexin V-FITC/PI) (U937 cells) | IC50 (SW620 (colon cancer)) [µM] | IC50 (NCI-H23 (lung cancer)) [µM] | Effect on cell cycle distribution [2] | IC50 (PC3 (prostate cancer)) [µM] | Apoptotic effects compared among the representative compounds (U937 cells)
1 | O=C(CN1C(=O)Cc2ccccc21)N/N=C/c1ccccc1O [Compound 4f, (E)-N'-(2-Hydroxybenzylidene)-2-(2-oxoindolin-1-yl)acetohydrazide] | 173 to 174 | 23.2 ± 0.26 | induced early, and more substantially, late apoptosis | 4.77 ± 0.53 | 4.3 ± 0.41 | accumulated U937 cells in the S phase | 7.34 ± 0.04 | –
2 | C=CCc1cccc(/C=N/NC(=O)CN2C(=O)Cc3ccccc32)c1O [Compound 4h, (E)-N'-(3-Allyl-2-hydroxybenzylidene)-2-(2-oxoindolin-1-yl)acetohydrazide] | 185 to 186 | 15.1 ± 0.93 | induced early, and more substantially, late apoptosis | 4.21 ± 0.17 | 3.05 ± 0.22 | accumulated U937 cells in the S phase | 5.65 ± 0.19 | more prominent
3 | O=C(CN1C(=O)Cc2cc(F)ccc21)N/N=C/c1ccccc1O [Compound 4n, (E)-N'-(2-Hydroxybenzylidene)-2-(5-fluoro-2-oxoindolin-1-yl)acetohydrazide] | 173 to 174 | 21 ± 0.51 | induced early, and more substantially, late apoptosis | 4.72 ± 0.75 | 3.7 ± 0.4 | accumulated U937 cells in the S phase | 5.08 ± 0.26 | –
4 | C=CCc1cccc(/C=N/NC(=O)CN2C(=O)Cc3cc(F)ccc32)c1O [Compound 4p, (E)-N'-(3-Allyl-2-hydroxybenzylidene)-2-(5-fluoro-2-oxoindolin-1-yl)acetohydrazide] | 194 to 195 | 15.7 ± 0.46 | induced early, and more substantially, late apoptosis | 3.65 ± 0.23 | 2.7 ± 0.15 | accumulated U937 cells in the S phase | 5.11 ± 0.08 | more prominent

More lines, main results first:

Row | melting point [°C] | Compound | IC50 [1] [µM] | Induction of apoptosis (Annexin V-FITC/PI) (U937 cells) | IC50 (SW620 (colon cancer)) [µM] | IC50 (NCI-H23 (lung cancer)) [µM] | Effect on cell cycle distribution [2] | IC50 (PC3 (prostate cancer)) [µM] | Apoptotic effects compared among the representative compounds (U937 cells)
5 | 201 to 202 | O=C(CN1C(=O)Cc2ccccc21)N/N=C1\C(=O)Nc2ccc(Cl)cc21 [Compound 5b, (Z)-N'-(5-Chloro-2-oxoindolin-3-ylidene)-2-(2-oxoindolin-1-yl)acetohydrazide] | > 30 | – | 17.4 ± 1.43 | 16.5 ± 1.33 | – | 18.4 ± 1.53 | –
6 | 198 to 199 | Cc1ccc2c(c1)/C(=N/NC(=O)CN1C(=O)Cc3ccccc31)C(=O)N2 [Compound 5c, (Z)-N'-(5-Methyl-2-oxoindolin-3-ylidene)-2-(2-oxoindolin-1-yl)acetohydrazide] | > 30 | – | 17.6 ± 1.32 | 18.4 ± 1.87 | – | 19.6 ± 2.01 | –
7 | 215 to 216 | O=C(CN1C(=O)Cc2cc(F)ccc21)N/N=C1\C(=O)Nc2ccccc21 [Compound 5d, (Z)-2-(5-Fluoro-2-oxoindolin-1-yl)-N'-(2-oxoindolin-3-ylidene)acetohydrazide] | > 30 | – | 12.4 ± 1.21 | 13.6 ± 1.31 | – | 14.6 ± 1.27 | –
8 | 221 to 222 | O=C(CN1C(=O)Cc2cc(F)ccc21)N/N=C1\C(=O)Nc2ccc(Cl)cc21 [Compound 5e, (Z)-N'-(5-Chloro-2-oxoindolin-3-ylidene)-2-(5-fluoro-2-oxoindolin-1-yl)acetohydrazide] | > 30 | – | 15.3 ± 1.5 | 15.5 ± 1.36 | – | 14.7 ± 1.71 | –
9 | 217 to 218 | Cc1ccc2c(c1)/C(=N/NC(=O)CN1C(=O)Cc3cc(F)ccc31)C(=O)N2 [Compound 5f, (Z)-2-(5-Fluoro-2-oxoindolin-1-yl)-N'-(5-methyl-2-oxoindolin-3-ylidene)acetohydrazide] | > 30 | – | 12.7 ± 1.22 | 14.9 ± 1.83 | – | 15.3 ± 1.7 | –
